Results from US20080293681A1, “SPRAYABLE PHARMACEUTICAL COMPOSITIONS COMPRISING A VITAMIN D DERIVATIVE AND AN OILY PHASE” (GALDERMA S.A., priority 2005, published 2008).

Assays:
[1] = Stability of calcitriol in Miglyol 812 (caprylic/capric triglycerides), HPLC assay against reference substance; format: physicochemical; details: 30 ppm in Miglyol 812 with 0.4% BHT
Text: (§1) The following example describes the stability data for calcitriol in the various excipients preferred for the composition according to the invention, including caprylic/capric triglycerides and cetearyl isononanoate. Stability of calcitriol in Miglyol 812 (caprylic/capric triglycerides) Solution of calcitriol at 30 ppm in qs 100% of Miglyol 812 in the presence of 0.4% of BHT. Assaying technique by HPLC against reference substance. At the initial time (T0), it is considered that the composition contains 100% of calcitriol. Measured concentration of calcitriol as % relative to T0: […]

[2] = Stability of calcitriol in Cetiol SN (cetearyl isononanoate), HPLC assay against reference substance; format: physicochemical; details: 30 ppm in Cetiol SN with 0.4% BHT
Text: as §1, with “Cetiol SN (cetearyl isononanoate)” for “Miglyol 812 (caprylic/capric triglycerides)”, “Cetiol SN (cetearyl isononanoate)” for “Miglyol 812”

C=C1/C(=C\C=C2/CCC[C@]3(C)[C@@H]([C@H](C)CCCC(C)(C)O)CC[C@@H]23)C[C@@H](O)C[C@@H]1O [calcitriol]
Measured concentration of calcitriol as % relative to T0 ([1]; +4° C., T 2 weeks): 98.3%
Measured concentration of calcitriol as % relative to T0 ([1]; +4° C., T 4 weeks): 105.2%
Measured concentration of calcitriol as % relative to T0 ([1]; +40° C., T 2 weeks): 91%
Measured concentration of calcitriol as % relative to T0 ([1]; +40° C., T 4 weeks): 93.8%
Measured concentration of calcitriol as % relative to T0 ([1]; AT, T 2 weeks): 95.1%
Measured concentration of calcitriol as % relative to T0 ([1]; AT, T 4 weeks): 98.0%
Measured concentration of calcitriol as % relative to T0 ([2]; +4° C., T 2 weeks): 98.6%
Measured concentration of calcitriol as % relative to T0 ([2]; +4° C., T 4 weeks): 98.1%
Measured concentration of calcitriol as % relative to T0 ([2]; +40° C., T 2 weeks): 99.0%
Measured concentration of calcitriol as % relative to T0 ([2]; +40° C., T 4 weeks): 98.9%
Measured concentration of calcitriol as % relative to T0 ([2]; AT, T 2 weeks): 98.7%
Measured concentration of calcitriol as % relative to T0 ([2]; AT, T 4 weeks): 98.4%
